Assay results from US20250304587A1, “WEE1 INHIBITOR, PREPARATION THEREFOR AND USE THEREOF” (JIANGSU TASLY DIYI PHARMACEUTICAL CO., LTD., priority 2022, published 2025).

How the values were obtained:
Caco-2 cells = assay: Membrane permeability in Caco-2 model; assay type: in vitro ADME; settings: for Efflux Ration: Caco2; for Papp A to B / Papp B to A: Caco2, 10 μM, 90 min
Protocol: Caco-2 cells were purchased from the American Model Tissue Cell Collection (Rockville, MD). The cell culture medium was modified Eagle's medium (MEM) containing 10% inactivated fetal bovine serum and 1% non-essential amino acids. […] The cells were incubated for 21-28 days after inoculation for transport experiments and the apparent permeability (Papp) of Lucifer Yellow was used to characterize and verify the compactness of the cell monolayer. […] After the incubation, dilute the samples on the apical side and basolateral side, and the concentrations of compounds on the apical and basolateral sides were detected by LC-MS/MS, and the concentrations of the compounds were quantified by standard curve.

BxPC3 cells = assay: Cell Titer-Glo anti-proliferation, BxPC3 cells; assay type: cell-based, human; settings: 3 days, read-out: Anti-proliferative activity BxPC3 (IC50 class)
Protocol: (§1) A. Evaluation of the Anti-Proliferative Effect of Compounds on BxPC3, HT-29 and OVCAR-3 Cells by the Cell Titer-Glo Method
(§2) Compound solutions of different concentration gradients were prepared. […] The cell growth group without compound was used as a positive control (maximum signal control) and the medium was used as a negative control (minimum signal control), while ensuring that the final level of DMSO in each reaction well was 0.2%. After removing the medium from the 384-well plate, 25 μl of the configured compound at different concentrations was transferred into the well plate and the compound and cells were incubated in the cell incubator at 37° C. with 5% CO2 for 3 days.
(§3) The 384-well plates were removed from the cell incubator and allowed to equilibrate for 1 h to room temperature. 25 μl of Cell Titer-Glo assay was added to each well, lysed on a shaker for 2 min and then read out (Luminescence) using a BMG PHERAStar after 10 min incubation. Calculate the inhibition rate from the luminescence signal.
(§4) to calculate the rate of inhibition of the cells by different concentrations of the compounds. The IC50 of the compound on cell activity inhibition was calculated by fitting a log(inhibitor) vs. response-Variable slope model to GraphPad Prism 6. The fitted equation was: Y=Bottom+(Top-Bottom)/(1+10^((Log IC50−X)*HillSlope)), where Y represents the rate of inhibition and X represents the concentration of the known compound after Log.

HUVEC cells = assay: Cell Titer-Glo anti-proliferation, normal cells HUVEC; assay type: cell-based
Protocol: as §2, §3, §4
(§5) B. Evaluation of the Anti-Proliferative Effect of Compounds by the Cell Titer-Glo Method on Normal Cells HUVEC and HK2.
(§6) The test method is the same as the anti-proliferative activity evaluation of tumor cells.

HT-29 cells = assay: Cell Titer-Glo anti-proliferation, HT-29 cells; assay type: cell-based, human; settings: 3 days, read-out: Anti-proliferative activity HT-29 (IC50 class)
Protocol: as §1, §2, §3, §4

Wee1 protein = Wee1 protein (Homo sapiens (Human), UniProt P30291); assay: TR-FRET binding of compound to Wee1 protein and Tracer 178; settings: Tracer 178, read-out: IC50, inhibitory activity against Wee1 kinase
Protocol: First, solutions of the compounds in different concentration gradients were prepared. The compounds were dissolved in DMSO and the compounds were diluted 4 folds with a total of 10 dose points and 2 parallel replicates for each concentration.
The IC50 for inhibition of enzyme activity by the compounds was then calculated using GraphPad Prism 6 and fitted with a log (inhibitor) vs. response-Variable slope mode. The fitting equation was: Y=Bottom+(Top−Bottom)/(1+10^((Log IC50−X)*HillSlope)), where Y represents the percentage of residual enzyme activity known and X represents the known concentration of compound after the logarithm.

OVCAR-3 cells = assay: Cell Titer-Glo anti-proliferation, OVCAR-3 cells; assay type: cell-based; settings: 3 days, read-out: Anti-proliferative activity OVCAR-3 (IC50 class)
Protocol: as §1, §2, §3, §4

HK2 cells = assay: Cell Titer-Glo anti-proliferation, normal cells HK2; assay type: cell-based
Protocol: as §2, §3, §4, §5, §6

hERG potassium channel = hERG potassium channel (Homo sapiens (Human), UniProt Q12809); assay: hERG potassium channel inhibition, patch clamp in CHO hERG cells
Protocol: The cell line used for the patch clamp assay was a 10th generation CHO cell overexpressing hERG potassium channel cDNA. CHO hERG cells were cultured in Petri dishes or flasks at 37° C. in a 5% CO2 incubator. Cells were dropped onto circular slides 24-48 hours prior to electrophysiological experiments and cultured in cell culture medium and used for experiments after the cells had been adhered.
Cell culture medium (purchased from Invitrogen) Composition: • Ham's F12 medium • 10% (v/v) heat inactivated FBS • 100 μg/ml Hygromycin B (thaumatin) • 100 μg/ml Geneticin (Genomycin, G418)
Compound powders are dissolved in the extracellular solution and are subjected to a routine 5 to 10 minute sonication and shaking to ensure complete dissolution of the compound.
The final concentrations of compounds used for electrophysiological assays were 5, 20 μM and the final concentration of DMSO was 0.1%.
Cell membrane currents were recorded using a HEKA EPC-10 USB patch-clamp amplifier (HEKA Elektronik, Germany). • 1) A coverslip with a large number of uniformly growing individual CHO hERG cells on its surface was taken. Place in a continuous recording cell on an inverted microscope, perfused with extracellular fluid (approximately 1 ml per minute) and recorded continuously, waiting for the current to stabilize. • 2) Record HERG channel currents for individual cells using standard whole cell recording mode. The membrane voltage is first clamped at −80 mV and the cell is given a +20 mV stimulus for 5 s to activate the hERG potassium channel, then repolarized to −50 mV for 5 s to generate an outward tail current, which is continuously perfused until the current is stable, at which point the peak tail current is the control current value. • 3) The extracellular solution containing the drug to be tested was then perfused and recorded until the inhibitory effect of the drug on the hERG current reached a steady state, at which point the peak tail current was the post-drug current value. • 4) The cells are again perfused with the extracellular solution until the hERG current returns to or approaches the level prior to the addition of the drug, then the perfusion can be continued to test other concentrations or drugs. One or more compound or drug concentrations may be tested on each cell. • 5) Cisapride (C4740-10 mg, Sigma) is used as a positive control in the experiment to ensure that the cells used respond properly.

plasma protein = assay: Plasma protein binding (equilibrium dialysis), mouse; settings: mouse plasma, 1 μM, 5 h dialysis
Protocol: Sample preparation: The compound was dissolved in DMSO to a stock solution of 10 mM, then the compound was diluted with PBS to a secondary stock solution of 0.02 mM, and then the above 0.02 mM was diluted to 1 μM using blank plasma, which was the sample to be incubated.
Dialysis set-up preparation: 400 μL of blank PBS was first added to the white wells of the equilibrated dialysis plate and 200 μL of the configured plasma sample was added to the red wells, and the dialysis plate was sealed with a sealing film.
Recovery plate preparation: Two 96-well deep-well plates, labelled T0 and T5, were prepared and all plasma samples were added at n=2. 300 μL of acetonitrile (Verapamil-HCl, 4 ng/mL) was added directly to the TO plate, followed by 50 μL of blank PBS mix well for 5 min and left to stand in a 4° C. refrigerator until the end of the incubation.
Experimental Operation: The dialysis device and the T5 plate were incubated together for 5 h in a microplate thermostatic shaker (37° C., using 300 rpm or minimum speed). At the end of the incubation, 300 μL of acetonitrile (Verapamil-HCl, 4 ng/mL) was added and 50 μL of PBS solution was added. At the end of the dialysis incubation, a new 96-well deep well plate was taken. Add 50 μL of plasma well sample to the corresponding position of the 96-well plate, 300 μL of acetonitrile and 50 μL of blank PBS; take 50 μL of buffer well sample to the corresponding position of the 96-well plate, then add 300 μL of acetonitrile and 50 μL of blank plasma. Add 300 μL of acetonitrile (Verapamil-HCl, 4 ng/mL) to the plasma-containing wells of the T5 plate, and then 50 μL of PBS solution was added. Shake for 5 min to fully precipitate the proteins and centrifuge at 20,000 g for 10 min at 4° C. Add 200 μL of supernatant to 200 μL of pure water, mix well and perform LC-MS/MS analysis.
• Plasma protein binding rate=[(Rpe−Rb)/Rpe]×100% • Recovery=[(Rpe+Rb)/R5 h]×100% • Stability=(R5/R0)×100%
• Rpe=ratio of plasma-side testing sample peak area to internal standard • Rb=ratio of buffer side testing sample peak area to internal standard • R5=ratio of incubator stability sample peak area to internal standard • R0=ratio of refrigerator stability sample peak area to internal standard

hERG potassium channel, sequence (Q12809 whole entry): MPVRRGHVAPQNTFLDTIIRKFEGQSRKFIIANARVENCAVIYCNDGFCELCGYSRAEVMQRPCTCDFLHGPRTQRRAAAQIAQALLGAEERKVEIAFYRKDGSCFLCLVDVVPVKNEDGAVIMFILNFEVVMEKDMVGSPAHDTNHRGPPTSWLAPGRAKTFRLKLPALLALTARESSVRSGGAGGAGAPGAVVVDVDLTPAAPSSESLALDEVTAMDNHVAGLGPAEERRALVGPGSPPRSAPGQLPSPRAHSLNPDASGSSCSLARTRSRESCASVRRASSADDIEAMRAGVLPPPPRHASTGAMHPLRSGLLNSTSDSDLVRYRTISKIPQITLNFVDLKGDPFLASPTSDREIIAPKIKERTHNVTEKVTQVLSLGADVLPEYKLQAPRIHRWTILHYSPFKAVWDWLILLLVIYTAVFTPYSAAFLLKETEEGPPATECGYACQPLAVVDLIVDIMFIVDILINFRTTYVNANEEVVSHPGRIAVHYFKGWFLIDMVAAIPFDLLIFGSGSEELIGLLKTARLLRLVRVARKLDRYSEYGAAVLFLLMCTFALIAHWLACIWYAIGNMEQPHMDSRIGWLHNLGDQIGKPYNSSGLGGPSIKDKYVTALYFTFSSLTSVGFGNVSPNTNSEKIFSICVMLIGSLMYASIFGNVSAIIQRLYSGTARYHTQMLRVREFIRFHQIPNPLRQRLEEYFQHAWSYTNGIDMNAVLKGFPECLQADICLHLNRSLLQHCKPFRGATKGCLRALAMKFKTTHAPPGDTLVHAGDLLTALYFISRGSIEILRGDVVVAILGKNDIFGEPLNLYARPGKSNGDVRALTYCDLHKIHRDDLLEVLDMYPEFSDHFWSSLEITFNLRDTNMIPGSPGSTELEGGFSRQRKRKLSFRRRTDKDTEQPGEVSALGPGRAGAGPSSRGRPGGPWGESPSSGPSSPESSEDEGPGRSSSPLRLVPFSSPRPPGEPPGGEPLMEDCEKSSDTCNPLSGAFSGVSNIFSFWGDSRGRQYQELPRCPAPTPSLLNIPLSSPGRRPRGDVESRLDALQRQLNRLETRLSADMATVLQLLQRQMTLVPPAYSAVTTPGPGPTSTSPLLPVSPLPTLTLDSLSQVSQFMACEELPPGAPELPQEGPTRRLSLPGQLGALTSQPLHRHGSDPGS
Wee1 protein, sequence (P30291 whole entry): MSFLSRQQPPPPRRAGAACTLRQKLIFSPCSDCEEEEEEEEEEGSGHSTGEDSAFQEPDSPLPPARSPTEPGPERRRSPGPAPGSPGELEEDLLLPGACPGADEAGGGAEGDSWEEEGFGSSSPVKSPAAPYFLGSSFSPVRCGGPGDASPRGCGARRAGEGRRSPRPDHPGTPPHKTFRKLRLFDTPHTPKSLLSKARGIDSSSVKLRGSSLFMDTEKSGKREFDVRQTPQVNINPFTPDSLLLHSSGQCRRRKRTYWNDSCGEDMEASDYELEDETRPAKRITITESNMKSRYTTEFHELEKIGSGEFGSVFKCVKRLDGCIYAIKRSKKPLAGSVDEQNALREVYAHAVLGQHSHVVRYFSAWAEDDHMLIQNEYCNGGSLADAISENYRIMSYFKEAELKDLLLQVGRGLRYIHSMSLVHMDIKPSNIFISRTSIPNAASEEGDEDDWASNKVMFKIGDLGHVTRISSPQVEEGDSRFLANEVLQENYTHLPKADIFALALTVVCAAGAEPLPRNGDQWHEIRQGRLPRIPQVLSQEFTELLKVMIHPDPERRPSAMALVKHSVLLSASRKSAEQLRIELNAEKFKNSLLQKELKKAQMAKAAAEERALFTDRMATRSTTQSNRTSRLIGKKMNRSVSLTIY

Row | Structure (SMILES) | Efflux Ration (Caco-2 cells) | Papp A to B (Caco-2 cells) | Papp B to A (Caco-2 cells) | IC50 (BxPC3 cells) | IC50 (HT-29 cells) | IC50 (Wee1 protein) | IC50 (OVCAR-3 cells) | Plasma Protein binding (PPB) Mouse (plasma protein) | IC50 (HUVEC cells) | IC50 (HK2 cells) | hERG Inhibition (hERG potassium channel; test concentration 5 μM) | hERG Inhibition (hERG potassium channel; test concentration 20 μM)
1 | [2H][C@]1(O)c2nc(-n3c4nc(Nc5ccc(N6CC7CC(C6)N7C(C)C)cc5)ncc4c(=O)n3CC=C)ccc2CCC12CC2 [Compound 39b] | 35.84 | 0.38 10^−6 cm/s | 13.62 10^−6 cm/s |  |  |  |  |  |  |  | 47.26 ± 2.27% | 67.24 ± 1.32%
2 | C=CCn1c(=O)c2cnc(Nc3ccc(N4CCN(C)CC4)cc3)nc2n1-c1ccc2c(n1)C(C)(O)C1(CC1)C2 (single isomer, unassigned) [Compound 3b] | 17.90 | 0.73 10^−6 cm/s | 13.07 10^−6 cm/s | 1 to 2 µM | 0.1 to 1 µM |  | 0.1 to 1 µM |  |  |  |  | 
3 | C=CCn1c(=O)c2cnc(Nc3ccc(N4C[C@H]5CN(C)C[C@H]5C4)cc3)nc2n1-c1ccc2c(n1)C(O)(C(F)(F)F)C1(CC1)C2 (mixture of isomers) [Compound 55] |  |  |  | 0.1 to 1 µM | 0.1 to 1 µM |  | 0.1 to 1 µM |  | > 10 µM | 0.93 µM |  | 
4 | C=CCn1c(=O)c2cnc(Nc3ccc(N4CCN(C(C)C)CC4)cc3)nc2n1-c1ccc2c(n1)[C@@H](O)C1(CC2)CC1 (single isomer, unassigned) [Compound 57b] |  |  |  | 0.1 to 1 µM | 0.1 to 1 µM |  | 0.1 to 1 µM |  | > 10 µM | 0.92 µM |  | 
5 | C=CCn1c(=O)c2cnc(Nc3ccc(N4CCC5(CCN(C)CC5)CC4)cc3)nc2n1-c1ccc2c(n1)[C@@H](O)C1(CC2)CC1 [Compound 37a] |  |  |  | 0.1 to 1 µM | 0.1 to 1 µM | 0.005 to 0.01 µM | 0.1 to 1 µM |  |  |  |  | 
6 | C=CCn1c(=O)c2cnc(Nc3ccc(N4CCN(C)CC4)cc3)nc2n1-c1ccc2c(c1)N(CC)C(=O)C21CC1 [Compound 1] |  |  |  | 5 to 10 µM | 1 to 2 µM | 0.01 to 0.1 µM |  |  |  |  |  | 
7 | C=CCn1c(=O)c2cnc(Nc3ccc(N4CCN(C)CC4)cc3)nc2n1-c1ccc2c3c(n(CC)c2n1)OCCC3 [Compound 17] |  |  |  | 1 to 2 µM | 0.1 to 1 µM | ≤ 0.005 µM | 0.1 to 1 µM |  |  |  |  | 
8 | C=CCn1c(=O)c2cnc(Nc3ccc(N4CC5CC(C4)N5CC)cc3)nc2n1-c1ccc2c(n1)[C@](C)(O)C1(CC2)CC1 (single isomer, unassigned) [Compound 51a] |  |  |  | 0.1 to 1 µM | 0.1 to 1 µM | ≤ 0.005 µM | 0.1 to 1 µM |  |  |  |  | 
9 | C=CCn1c(=O)c2cnc(Nc3ccc(N4CCC5(CCN(C)CC5)CC4)c(C)c3)nc2n1-c1ccc2c(n1)[C@H](O)C1(CC2)CC1 (single isomer, unassigned) [Compound 61b] |  |  |  | 0.1 to 1 µM | 0.1 to 1 µM | 0.005 to 0.01 µM | 0.1 to 1 µM |  | 4.46 µM | 0.49 µM |  | 
10 | C=CCn1c(=O)c2cnc(Nc3ccc(N4CCN(C)CC4)cc3)nc2n1-c1ccc2c(n1)C(O)(CC)C1(CC2)CC1 (racemic) [Compound 21] |  |  |  | 1 to 2 µM | 0.1 to 1 µM |  | 0.1 to 1 µM | 98.86% |  |  |  | 
11 | C=CCn1c(=O)c2cnc(Nc3ccc(N4CC5CC(C4)N5C)cc3)nc2n1-c1ccc2c(n1)C(C)(O)C1(CC2)CC1 (centres unmarked) [Compound 7] |  |  |  | 0.1 to 1 µM | 0.1 to 1 µM | ≤ 0.005 µM | 0.1 to 1 µM |  |  |  | 88.02 ± 3.87% | 95.13 ± 1.06%
12 | C=CCn1c(=O)c2cnc(Nc3ccc(N4CC5CC(C4)N5C(C)C)cc3)nc2n1-c1ccc2c(n1)[C@H](O)C1(CC2)CC1 [Compound 39b] |  |  |  | 0.1 to 1 µM | 0.1 to 1 µM | 0.005 to 0.01 µM | 0.1 to 1 µM |  | > 10 µM | 0.73 µM |  | 
13 | C=CCn1c(=O)c2cnc(Nc3ccc(N4CCC5(CCN(C)CC5)CC4)cc3)nc2n1-c1ccc2c(n1)[C@H](O)C1(CC2)CC1 [Compound 38b] |  |  |  | 0.1 to 1 µM | 0.1 to 1 µM | 0.005 to 0.01 µM | 0.1 to 1 µM |  |  |  |  | 
14 | C=CCn1c(=O)c2cnc(Nc3ccc(N4CCN(C)CC4)cc3)nc2n1-c1ccc2c(n1)N(CC)C(=O)C21CCC1 [Compound 2] |  |  |  | 2 to 5 µM | 1 to 2 µM | 0.01 to 0.1 µM |  |  |  |  |  | 

Now from value to molecule, other results behind:

Row | Efflux Ration (Caco-2 cells) | Papp A to B (Caco-2 cells) | Papp B to A (Caco-2 cells) | IC50 (BxPC3 cells) | IC50 (HT-29 cells) | IC50 (Wee1 protein) | IC50 (OVCAR-3 cells) | Plasma Protein binding (PPB) Mouse (plasma protein) | Structure (SMILES) | IC50 (HUVEC cells) | IC50 (HK2 cells) | hERG Inhibition (hERG potassium channel; test concentration 5 μM) | hERG Inhibition (hERG potassium channel; test concentration 20 μM)
15 | 9.55 | 0.96 10^−6 cm/s | 9.17 10^−6 cm/s | 0.1 to 1 µM | 0.1 to 1 µM | 0.005 to 0.01 µM | 0.1 to 1 µM |  | C=CCn1c(=O)c2cnc(Nc3ccc(N4CCC(N(C)C)CC4)cc3)nc2n1-c1ccc2c(n1)[C@@](C)(O)C1(CC2)CC1 [Compound 65a] | > 10 µM | 0.7 µM |  | 
16 |  |  |  | 1 to 2 µM | 0.1 to 1 µM | ≤ 0.005 µM | 1 to 2 µM |  | C=CCn1c(=O)c2cnc(Nc3ccc(N4CCN(C)[C@@H](C)C4)cc3)nc2n1-c1ccc2c(n1)C(O)(CC)C1(CC1)C2 (some centres unmarked) [Compound 30] |  |  |  | 
17 |  |  |  | 2 to 5 µM | 1 to 2 µM | ≤ 0.005 µM | 2 to 5 µM |  | C=CCn1c(=O)c2cnc(Nc3ccc(N4CCN(C)CC4)cc3)nc2n1-c1ccc2c(n1)[C@@H](O)C1(CC2)CC1 (single isomer, unassigned) [Compound 4a] |  |  |  | 
18 |  |  |  | 0.1 to 1 µM | 0.1 to 1 µM | ≤ 0.005 µM | 0.1 to 1 µM |  | C=CCn1c(=O)c2cnc(Nc3ccc(N4CCN(C)CC4)c(C)c3)nc2n1-c1ccc2c(n1)[C@@](C)(O)C1(CC2)CC1 (single isomer, unassigned) [Compound 23a] |  |  |  | 
19 |  |  |  |  |  |  |  | 96.26% | [2H][C@@]1(O)c2nc(-n3c4nc(Nc5ccc(N6CCC(N(C)C)CC6)c(C)c5)ncc4c(=O)n3CC=C)ccc2CCC12CC2 [Compound 41b] |  |  |  | 
20 |  |  |  |  |  | ≤ 0.005 µM |  |  | C=CCn1c(=O)c2cnc(Nc3ccc(N4CCC5(CCN(C)CC5)CC4)cc3)nc2n1-c1ccc2c(n1)[C@](C)(O)C1(CC2)CC1 (single isomer, unassigned) [Compound 44a] | 1.03 µM | 0.36 µM |  | 
21 |  |  |  | 1 to 2 µM | 0.1 to 1 µM | ≤ 0.005 µM | 0.1 to 1 µM | 97.2% | C=CCn1c(=O)c2cnc(Nc3ccc(N4CCN(C)CC4)cc3)nc2n1-c1ccc2c(n1)C(C)(O)C1(CC2)CC1 (centres unmarked) [Compound 6] |  |  |  | 
22 |  |  |  | 0.1 to 1 µM | 0.1 to 1 µM |  | 0.1 to 1 µM |  | C=CCn1c(=O)c2cnc(Nc3ccc(N4CCN(C)[C@@H](C)C4)cc3)nc2n1-c1ccc2c(n1)[C@@H](O)C1(CC2)CC1 (single isomer, unassigned) [Compound 56b] | > 10 µM | 0.99 µM |  | 
23 |  |  |  | 1 to 2 µM | 0.1 to 1 µM | ≤ 0.005 µM | 0.1 to 1 µM |  | C=CCn1c(=O)c2cnc(Nc3ccc(N4CCN(C)CC4)cc3)nc2n1-c1ccc2c(n1)[C@@](C)(O)C1(CC2)CC1 [Compound 6a] |  |  |  | 
24 |  |  |  | 1 to 2 µM | 0.1 to 1 µM | ≤ 0.005 µM | 1 to 2 µM |  | C=CCn1c(=O)c2cnc(Nc3ccc(N4CCN(C)CC4)cc3)nc2n1-c1ccc2c(n1)C(O)C1(CC2)CC1 (centres unmarked) [Compound 4] |  |  |  | 
25 |  |  |  | 0.1 to 1 µM | 0.1 to 1 µM | ≤ 0.005 µM | 0.1 to 1 µM |  | C=CCn1c(=O)c2cnc(Nc3ccc(N4CCC(N(C)C)CC4)c(C)c3)nc2n1-c1ccc2c(n1)[C@@H](O)C1(CC2)CC1 (single isomer, unassigned) [Compound 41b] | > 10 µM | 0.55 µM |  | 
26 |  |  |  | 0.1 to 1 µM | 0.1 to 1 µM |  | 0.1 to 1 µM |  | C=CCn1c(=O)c2cnc(Nc3ccc(N4CCC(N(C)C)CC4)c(C)c3)nc2n1-c1ccc2c(n1)[C@H](O)C1(CC2)CC1 (single isomer, unassigned) [Compound 48b] |  |  | 73.67 ± 0.93% | 90.92 ± 0.49%
